From patent US10253081B2, “Glucagon analogues” (Zealand Pharma A/S, priority 2012, dated 2019) come the findings set out here.

*1 amine or outer side, *2 acyl side, *3 side chain or, on linkers, in order; H or OH if unused. Where a SMILES comes first, the peptide text is derived from it. Side-chain parts run from the residue outwards. [ ]: non-standard residue; d: D form. The star is where a group is joined. γGlu = O=C(O)[C@H](CCC(=O)[*:2])N[*:1]; Palmitoyl = CCCCCCCCCCCCCCCC(=O)*; Aib = CC(C)(N)C(=O)O

Format in all cases: cell-based
Test [1] deals with T1, endogenous GLP-1 receptors (Mus musculus, UniProt O35659).
T1 construct: Agonistic activity of the test compounds on endogenous GLP-1 receptors; endogenous in cells
T1 sequence (O35659 22-463): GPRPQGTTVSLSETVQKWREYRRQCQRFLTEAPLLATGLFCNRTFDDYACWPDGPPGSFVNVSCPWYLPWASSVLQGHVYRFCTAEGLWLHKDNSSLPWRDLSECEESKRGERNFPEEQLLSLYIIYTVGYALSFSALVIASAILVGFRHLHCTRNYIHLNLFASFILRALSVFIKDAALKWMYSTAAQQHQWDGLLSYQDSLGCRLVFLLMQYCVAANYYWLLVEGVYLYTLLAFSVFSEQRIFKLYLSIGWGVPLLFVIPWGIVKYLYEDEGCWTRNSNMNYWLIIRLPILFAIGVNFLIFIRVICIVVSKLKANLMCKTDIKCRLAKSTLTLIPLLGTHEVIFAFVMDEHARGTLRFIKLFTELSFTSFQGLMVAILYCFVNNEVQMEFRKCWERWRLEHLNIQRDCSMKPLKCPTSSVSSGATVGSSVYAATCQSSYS
The experiment in a line: Agonistic activity on endogenous GLP-1 receptor (cAMP, murine insulinoma cell line). Particulars: intracellular cAMP, 15 minutes at 26° C.; read-out: EC50 GLP-1R (murine insulinoma cells). Here is the method:
Agonistic activity of the test compounds on endogenous GLP-1 receptors was determined using a murine insulinoma cell line. Intracellular cAMP was used an indicator of receptor activation.
Cells were cultured for 24 h at a density of 10,000 cells/well in a 384-well plate. Medium was removed and 10 μL KRBH buffer (NaCl 130 mM, KCl 3.6 mM, NaH2PO4 0.5 mM, MgSO4 0.5 mM, CaCl2) 1.5 mM) containing test compound or GLP-1 (at increasing concentrations from […] to 100 nM) or solvent control (0.1% (v/v) DMSO) was added to the wells for 15 minutes at a temperature of 26° C.
The cellular cAMP content is measured using the AlphaScreen cAMP Functional Assay Kit (Perkin Elmer). Measurement was performed using the Envision (PerkinElmer) according to manufacturer's recommendations.
All measurements were performed in quadruplicate.
Results were converted into cAMP concentrations using a cAMP standard curve prepared in KRBH buffer containing 0.1% (v/v) DMSO. The resulting cAMP curves were plotted as absolute cAMP concentrations (nM) over log (test compound concentration) and analyzed using the curve fitting program XLfit.
Parameters calculated to describe the both the potency as well as the agonistic activity of each test compound on the endogenous GLP-1 receptors were:
pEC50 (negative logarithmic value of EC50, a concentration resulting in a half-maximal elevation of cAMP levels, reflecting the potency of the test compound);
Percent control (% CTL)(% cAMP elevation for each test compound concentration normalized based on the GLP-1-induced maximum cAMP response (100% CTL)).

In test [2] the target is T2, endogenous glucagon receptor (Rattus norvegicus, UniProt P30082).
T2 construct: Agonistic activity of the test compounds on endogenous glucagon receptor; endogenous in cells; host or cells: primary rat hepatocytes
The test is described as follows: Agonistic activity on endogenous glucagon receptor (glycogen synthesis rate in primary rat hepatocytes). Particulars: inhibition of glycogen synthesis rate, 3 hours, read-out: EC50 GLP-1R Rat hepat. As to the method:
Agonistic activity of the test compounds on endogenous glucagon receptor was determined by measuring their effect on rate of glycogen synthesis in primary rat hepatocytes. Upon activation of the glucagon receptor, an inhibition of the glycogen synthesis rate is expected. Rate of glycogen synthesis was determined by counting the amount of radioactively labeled glucose incorporated into the cellular glycogen stores in a defined period of time.
Primary rat hepatocytes were cultured at a density of 40,000 cells/well in a 24-well plate for 24 hours at 37° C. and 5% CO2.
Medium was discarded and the cells washed with PBS. 180 μL of KRBH-based buffer containing 0.1% BSA and glucose at a concentration of 22.5 mM was then added to the wells, followed by test compound and 40 μCi/ml D-[U14C] glucose (20 μL each). Incubation was continued for 3 hours.
At the end of the incubation period, the incubation buffer was aspirated and cells washed once with ice-cold PBS before lysis by incubation for 30 min at room temperature with 100 μL 1 mol/l NaOH.
Cell lysates were transferred to 96-well filter plates and glycogen precipitated by incubating the filter-plates for 120 min at 4° C. followed by washing the filter plates 4 times with ice-cold ethanol (70%). The resulting precipitates were filtered to dryness and the amount of incorporated ^14C-glucose determined by using a Topcount scintillation counter according to manufacturer's recommendations.
Wells with vehicle controls (0.1% (v/v) DMSO in KRBH buffer) were included as reference for non-inhibited glycogen synthesis (100% CTL). Wells without added D-[U^14C] glucose were included as controls for non-specific background signal (subtracted from all values). Endogenous glucagon peptide was used as a positive control.
All treatments were performed at least in triplicates.
Parameters calculated to describe the both the potency as well as the agonistic activity of each test compound on the endogenous glucagon receptor are pEC50 and % CTL. % CTL is determined by calculating the percentage of CPM/well in the presence of the test compound compared to the CPM/well of the vehicle control after subtracting the background CPM/well: [CPM/well(basal)−CPM/well(sample)]*100/[CPM/well(basal)−CPM/well(control)]
An activator of the glucagon receptor will result in an inhibition of the glycogen synthesis rate and will give % CTL values between 0% CTL (complete inhibition) and 100% CTL (no observable inhibition).
The resulting activity curves were plotted as absolute counts (unit: cpm/sample) over log (test compound concentration) and analyzed using the curve fitting program XLfit.
pEC50 (negative logarithmic value of EC50) reflects the potency of the test compound.
The terms EC50 and pEC50 quoted in relation to GLP-1R activation could equally be regarded as IC50 and pIC50 in relation to glycogen synthesis.

The target in test [3] is T3, human glucagon-like peptide 1 receptor (GLP-1R) (Homo sapiens, UniProt P43220).
T3 construct: expressed in transfected cells
The test is described as follows: GLP-1 receptor efficacy assay (cAMP AlphaScreen, CHO cells). Particulars: Table 1B; for Ratio GLP-1/Glucagon: EC50 [GLP-1R]/EC50 [Glucagon-R]; for EC50: same protocol, different laboratory, read-out: EC50 hGLP-1R CHO-K1. The text has this:
(§1) The cDNA encoding either the human glucagon receptor (Glucagon-R) (primary accession number P47871) or the human glucagon-like peptide 1 receptor (GLP-1R) (primary accession number P43220) were synthesized and cloned into a mammalian expression vector containing a Zeocin resistance marker.
(§2) The mammalian expression vectors encoding the Glucagon-R or the GLP-1-R were transfected into Chinese hamster ovary (CHO) cells by the Attractene method method. Stably expressing clones were obtained by Zeocin selection (250 μg/mL) upon limited dilution of cells resistant to the selection pressure. Glucagon-R and GLP-1-R cell clones expressing were picked, propagated and tested in the Glucagon-R and GLP-1-R efficacy assays as described below. One Glucagon-R expressing clone and one GLP-1-R expressing clone were chosen for compound profiling.
(§3) CHO cells expressing the human Glucagon-R, or human GLP-1-R were seeded 24 hours prior to the assay at 30,000 cells per well in 96-well microtiter plates in culture in 100 μl growth medium. On the day of analysis, growth medium was removed and the cells were washed once with 200 μl of assay buffer (Krebs-Ringer-buffer—KRBH). The buffer was removed and the cells were incubated for 15 min at room temperature in 10 μl KRBH (KRBH+10 mM HEPES, 5 mM NaHCO3, 0.1% (V/V) BSA) with 0.1 mM IBMX in deionized water containing increasing concentrations of test peptides. The reaction was stopped by the addition of lysis buffer (0.1% w/v BSA, 5 mM HEPES, 0.3% v/v Tween-20). After cell lysis for 10 min at room temperature, lysates were transferred to 384-well plates and 10 μl of acceptor/donorbead mixture as contained in the AlphaScreen™ cAMP Functional Assay Kit was added. After one hour of incubation at room temperature in the dark, the cAMP content was determined applying the AlphaScreen™ cAMP Functional Assay Kit from Perkin-Elmer according to manufacturer instructions. EC50 and relative efficacies compared to reference compounds (glucagon and GLP-1) were calculated applying computer aided curve fitting. The GLP-1/glucagon ratio is calculated as defined earlier.

Test [4] deals with T4, human glucagon receptor (Glucagon-R) (Homo sapiens, UniProt P47871).
T4 construct: expressed in transfected cells
The test is described as follows: Glucagon receptor efficacy assay (cAMP AlphaScreen, CHO cells). Particulars: Table 1B; same protocol, different laboratory; read-out: EC50 hGCGR CHO-K1.
Text: as §1, §2, §3

T4 sequence (P47871 26-477): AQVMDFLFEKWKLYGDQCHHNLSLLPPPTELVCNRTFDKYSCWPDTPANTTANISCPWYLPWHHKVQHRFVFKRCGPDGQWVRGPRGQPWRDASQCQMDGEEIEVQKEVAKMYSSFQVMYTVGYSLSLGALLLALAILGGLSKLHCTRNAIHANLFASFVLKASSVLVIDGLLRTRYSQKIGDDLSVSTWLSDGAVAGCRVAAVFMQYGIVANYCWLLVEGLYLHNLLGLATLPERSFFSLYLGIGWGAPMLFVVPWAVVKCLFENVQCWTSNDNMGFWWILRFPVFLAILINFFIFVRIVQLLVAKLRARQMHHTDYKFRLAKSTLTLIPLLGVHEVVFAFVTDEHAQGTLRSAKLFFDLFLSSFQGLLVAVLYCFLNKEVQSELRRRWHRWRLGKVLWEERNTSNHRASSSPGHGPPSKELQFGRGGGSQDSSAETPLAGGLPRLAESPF
T2 sequence (P30082 27-485): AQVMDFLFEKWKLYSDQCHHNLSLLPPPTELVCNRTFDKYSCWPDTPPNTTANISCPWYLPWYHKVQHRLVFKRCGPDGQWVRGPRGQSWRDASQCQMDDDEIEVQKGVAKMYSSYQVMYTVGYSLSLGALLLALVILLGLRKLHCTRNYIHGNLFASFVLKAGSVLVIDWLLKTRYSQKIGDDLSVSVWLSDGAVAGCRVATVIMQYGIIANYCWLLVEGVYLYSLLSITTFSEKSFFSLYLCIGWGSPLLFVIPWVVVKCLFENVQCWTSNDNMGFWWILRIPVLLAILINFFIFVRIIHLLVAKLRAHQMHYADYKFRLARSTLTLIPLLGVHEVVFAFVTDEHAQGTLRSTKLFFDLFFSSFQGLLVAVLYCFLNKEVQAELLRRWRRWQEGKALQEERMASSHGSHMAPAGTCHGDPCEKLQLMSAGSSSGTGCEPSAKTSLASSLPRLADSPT
T3 sequence (P43220 24-463): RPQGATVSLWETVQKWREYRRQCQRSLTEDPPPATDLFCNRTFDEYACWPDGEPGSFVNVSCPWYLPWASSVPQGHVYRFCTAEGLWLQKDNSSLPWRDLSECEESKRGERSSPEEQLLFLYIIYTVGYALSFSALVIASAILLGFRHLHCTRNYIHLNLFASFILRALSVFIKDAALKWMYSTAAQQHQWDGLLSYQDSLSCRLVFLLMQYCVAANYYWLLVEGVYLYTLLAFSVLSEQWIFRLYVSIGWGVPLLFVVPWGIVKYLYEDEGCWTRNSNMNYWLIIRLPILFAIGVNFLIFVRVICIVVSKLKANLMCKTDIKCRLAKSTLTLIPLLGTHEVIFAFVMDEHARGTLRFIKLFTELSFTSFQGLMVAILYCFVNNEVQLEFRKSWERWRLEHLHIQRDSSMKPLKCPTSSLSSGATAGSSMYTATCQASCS

On to `CCCCCCCCCCCCCCCC(=O)N[C@@H](CCC(=O)NCCCC[C@H](NC(=O)[C@H](CO)NC(=O)[C@H](CCC(=O)O)NC(=O)[C@H](CC(C)C)NC(=O)[C@H](Cc1ccc(O)cc1)NC(=O)[C@H](CCCCN)NC(=O)[C@H](CO)NC(=O)[C@H](Cc1ccc(O)cc1)NC(=O)[C@H](CC(=O)O)NC(=O)[C@H](CO)NC(=O)[C@@H](NC(=O)[C@H](Cc1ccccc1)NC(=O)[C@@H](NC(=O)CNC(=O)[C@H](Cc1c[nH]cn1)NC(=O)C(C)(C)NC(=O)[C@@H](N)Cc1c[nH]cn1)[C@@H](C)O)[C@@H](C)O)C(=O)N[C@@H](C)C(=O)N[C@@H](C)C(=O)N[C@@H](CCC(=O)O)C(=O)N[C@@H](CCC(=O)O)C(=O)N[C@@H](Cc1ccccc1)C(=O)N[C@H](C(=O)N[C@@H](CCC(=O)O)C(=O)N[C@@H](Cc1c[nH]c2ccccc12)C(=O)N[C@@H](CC(C)C)C(=O)N[C@@H](CCC(=O)O)C(=O)N[C@@H](CO)C(=O)N[C@@H](C)C(=O)O)[C@@H](C)CC)C(=O)O` [Compound 17, H-H-Aib-HGTFTSDYSKYLES-K(Hexadecanoyl-isoGlu)-AAEEFIEWLESA-OH] (H-H[Aib]HGTFTSDYSKYLESK([γGlu-Palmitoyl])AAEEFIEWLESA-OH), for which the EC50 (in general, the midpoint of the concentration-response curve) amounted to 890 pM in test [1], 180 pM in test [2], 230 pM in test [3] and 50 pM in test [4]. Further, the “Ratio GLP-1/Glucagon” value in test [3] amounted to 4.6.

For the compound `CCCCCCCCCCCCCCCC(=O)N[C@@H](CCC(=O)NCCCC[C@H](NC(=O)[C@H](CCC(=O)O)NC(=O)[C@H](CCC(=O)O)NC(=O)[C@H](CC(C)C)NC(=O)[C@H](Cc1ccc(O)cc1)NC(=O)[C@H](CCCCN)NC(=O)[C@H](CO)NC(=O)[C@H](Cc1ccc(O)cc1)NC(=O)[C@H](CC(=O)O)NC(=O)[C@H](CO)NC(=O)[C@@H](NC(=O)[C@H](Cc1ccccc1)NC(=O)[C@@H](NC(=O)CNC(=O)[C@H](Cc1c[nH]cn1)NC(=O)[C@H](CO)NC(=O)[C@@H](N)Cc1c[nH]cn1)[C@@H](C)O)[C@@H](C)O)C(=O)N[C@@H](C)C(=O)N[C@@H](C)C(=O)N[C@@H](Cc1c[nH]cn1)C(=O)N[C@@H](CCC(=O)O)C(=O)N[C@@H](Cc1ccccc1)C(=O)N[C@H](C(=O)N[C@@H](CCC(=O)O)C(=O)N[C@@H](Cc1c[nH]c2ccccc12)C(=O)N[C@@H](CC(C)C)C(=O)N[C@@H](CCC(=O)O)C(=O)N[C@@H](CO)C(=O)N[C@@H](C)C(=O)O)[C@@H](C)CC)C(=O)O` [Compound 18, H-HSHGTFTSDYSKYLEE-K(Hexadecanoyl-isoGlu)-AAHEFIEWLESA-OH] (H-HSHGTFTSDYSKYLEEK([γGlu-Palmitoyl])AAHEFIEWLESA-OH), the EC50 in test [1] was 990 pM; in test [2], 180 pM; in test [3], 870 pM; in test [4], 140 pM. Also, in test [3], the “Ratio GLP-1/Glucagon” value is 6.2.

Regarding `CCCCCCCCCCCCCCCC(=O)N[C@@H](CCC(=O)NCCCC[C@H](NC(=O)[C@H](CCC(=O)O)NC(=O)[C@H](CCC(=O)O)NC(=O)[C@H](CC(C)C)NC(=O)[C@H](Cc1ccc(O)cc1)NC(=O)[C@H](CCCCN)NC(=O)[C@H](CO)NC(=O)[C@H](Cc1ccc(O)cc1)NC(=O)[C@H](CC(=O)O)NC(=O)[C@H](CO)NC(=O)[C@@H](NC(=O)[C@H](Cc1ccccc1)NC(=O)[C@@H](NC(=O)CNC(=O)[C@H](Cc1c[nH]cn1)NC(=O)C(C)(C)NC(=O)[C@@H](N)Cc1c[nH]cn1)[C@@H](C)O)[C@@H](C)O)C(=O)N[C@@H](C)C(=O)N[C@@H](C)C(=O)N[C@@H](Cc1c[nH]cn1)C(=O)N[C@@H](CCC(=O)O)C(=O)N[C@@H](Cc1ccccc1)C(=O)N[C@H](C(=O)N[C@@H](CCC(=O)O)C(=O)N[C@@H](Cc1c[nH]c2ccccc12)C(=O)N[C@@H](CC(C)C)C(=O)N[C@@H](CCC(=O)O)C(=O)N[C@@H](CO)C(=O)N[C@@H](C)C(N)=O)C(C)C)C(=O)O` [Compound 19, H-H-Aib-HGTFTSDYSKYLEE-K(Hexadecanoyl-isoGlu)-AAHEFVEWLESA-NH2] (H-H[Aib]HGTFTSDYSKYLEEK([γGlu-Palmitoyl])AAHEFVEWLESA-NH2), the EC50 in test [1] was 330 pM; in test [2], 60 pM; in test [3], 270 pM; in test [4] it was 80 pM. Besides, the “Ratio GLP-1/Glucagon” value in test [3] is given as 3.38.
